Measured values reported in US8802693B1, “Azaadamantane derivatives and methods of use” (priority 2011, dated 2014).

Experiments:
Assay type in all cases: in vivo, human
[1] = test system: subjects with mild-to-moderate Alzheimer's disease; experiment: Phase 2a Clinical Study A: ADAS-cog (11-item) total score; conditions: for ADAS-cog (11-Item) Total Score Observed Mean (SD) Final: final evaluation, 12-week treatment; for efficacy in treatment of core symptoms of Alzheimer's disease in human patients (summary in words): Phase 2a study, dose not stated
Experimental: (§1) A Phase 2a proof-of-concept (POC) study in subjects with mild-to-moderate dementia of Alzheimer type was conducted. The study was a randomized, double-blind, placebo- and active-controlled, multicenter study designed to evaluate the efficacy and safety of Compound A (ABT-126) in subjects diagnosed with mild-to-moderate Alzheimer's disease, defined as meeting National Institute of Neurological and Communicative Disorders and Stroke/Alzheimer's Disease and Related Disorders Association (NINCDS/ADRDA) criteria for probable AD. […] Subjects were randomized in an equal ratio to one of four treatment groups (placebo, 5 mg Compound A, 25 mg Compound A, or donepezil) for a 12-week treatment period. The primary efficacy measure was the Alzheimer's Disease Assessment Scale—cognitive subscale (ADAS-Cog). Subjects were generally in good health and any chronic medical conditions were stable during the time of screening. Subjects were not taking other medication for Alzheimer's disease.
(§2) The study was a Phase 2, randomized, double-blind, placebo- and active-controlled, multicenter study designed to evaluate the dose-response relationship and safety of two doses of Compound A in subjects diagnosed with mild to moderate AD, defined as meeting NINCDS/ADRDA criteria for probable AD.
(§3) The study consisted of a Screening Period of up to 28 days, a 12-week treatment period, and a post-treatment period. The screening period consisted of three visits: Screening Visit 1, Screening Visit 2, and Day −1. Upon completion of Day −1 procedures, eligible subjects were randomized through an Interactive Voice Response/Interactive Web-Based (IVR/IWB) system. Subjects were randomized in an equal ratio to one of four treatment groups (placebo, 5 mg Compound A, 25 mg Compound A, or donepezil).
(§4) Each subject was instructed to take study drug once-daily in the morning for 12 weeks. Subjects randomized to donepezil took 5 mg donepezil QD for the first 4 weeks and began 10 mg donepezil QD at Week 4 through the remainder of the study. The subject and investigator were blinded to the treatment assignment throughout the study.
(§5) Subjects completed 4 visits during the treatment period at Week 2, Week 4, Week 8 and Week 12. Subjects returned to the study site for a follow-up visit approximately 2 weeks after the Week 12 or premature discontinuation visit for a safety evaluation. In addition, study site personnel contacted each subject's caregiver by telephone approximately 30 days after the subject's last dose of study drug to ascertain the subject's safety status.
(§6) The primary efficacy measure was the Alzheimer's Disease Assessment Scale-cognitive subscale (ADAS-cog). The ADAS-cog was designed to assess the cognitive impairments most common in AD. The ADAS-cog is a subscale of the ADAS, which focuses on cognitive functioning and memory. Two versions were used in the study: an 11-item version and an expanded (13-item) version. The 11-item version of the ADAS-cog was the primary endpoint measure in this study. ADAS-Cog (13-item) was administered throughout the study and the primary efficacy variable was considered the change from baseline to final evaluation on the ADAS-cog total score (11-item).
The 11-item ADAS-cog includes the following tests: Word Recall, Commands, Constructional Praxis, Naming Objects and Fingers, Ideational Praxis, Orientation, Word Recognition, Remembering Test Instructions, Comprehension of Spoken Language, Spoken Language Ability, and Word Finding Difficulty. The total score of the 11-item ADAS-cog ranges from 0 to 70, with a higher score representing greater impairment.
The primary efficacy variable was the change from baseline to the final observation on the ADAS-cog (11-item) total score. The primary efficacy analysis was carried out using an ANCOVA model with treatment and study site as the main effects and baseline score as the covariate. […]

[2] = test system: subjects with mild-to-moderate Alzheimer's disease; experiment: Phase 2a Clinical Study A: ADAS-cog (13-item) total score; conditions: for ADAS-cog (13-Item) Total Score Observed Mean (SD) Final: final evaluation, 12-week treatment
Experimental: as §1, §2, §3, §4, §6
The 13-item ADAS-cog is comprised of the 11-item ADAS-cog with two additional items (Delayed Word Recall and a Number Cancellation Test) that are designed to assess attention and concentration. The Delayed Word Recall Test (range from 0 to 10) was an addition to the Word Recall Test to enhance sensitivity of the instrument in assessing cognition functioning on patients with mild AD. The Number Cancellation Test (range from 0 to 5) was reliable and sensitive to a broad range of dementia severity, and was recommended as a useful addition to the 11-item ADAS-cog. The total score of the 13-item ADAS-cog ranges from 0 to 85, with a higher score representing greater impairment. The ADAS-cog (13-item) was administered by a certified rater at Screening Visit 1, Screening Visit 2, and Day-1, as well as Weeks 4, 8, and 12 during the study.

[3] = test system: subjects with mild-to-moderate Alzheimer's disease; experiment: Phase 2a Clinical Study A: safety and tolerability
Experimental: as §1, §2, §4, §5

[4] = 5 mg QD, ANCOVA, baseline to final evaluation
[5] = 25 mg QD, ANCOVA, baseline to final evaluation

Structure (SMILES): c1ccc(-c2nnc(O[C@@H]3C4CC5C[C@H]3CN(C5)C4)s2)cc1 [Compound A, (4s)-4-(5-phenyl-1,3,4-thiadiazol-2-yloxy)-1-azatricyclo[3.3.1.1^3,7]decane]
- ADAS-cog (11-Item) Total Score Difference From Placebo LS Mean (SE) of Difference [1, 4]: −0.08
- ADAS-cog (11-Item) Total Score LS Mean (SE) of Change [1, 4]: −0.76 (0.64)
- ADAS-cog (11-Item) Total Score Observed Mean (SD) change ([1]; 5 mg QD, Change to Week 4): −0.36 (4.01)
- ADAS-cog (11-Item) Total Score Observed Mean (SD) change ([1]; 5 mg QD, Change to Week 8): −0.58 (4.83)
- ADAS-cog (11-Item) Total Score Observed Mean (SD) change ([1]; 5 mg QD, Change to Week 12): −1.01 (5.50)
- ADAS-cog (11-Item) Total Score Difference From Placebo LS Mean (SE) of Difference ([1]; 5 mg QD, MMRM, Week 4): 0.03 (0.65)
- ADAS-cog (11-Item) Total Score LS Mean (SE) of Change from Baseline ([1]; 5 mg QD, MMRM, Week 4): −0.06 (0.47)
- ADAS-cog (11-Item) Total Score Difference From Placebo LS Mean (SE) of Difference ([1]; 5 mg QD, MMRM, Week 8): 0.07 (0.81)
- ADAS-cog (11-Item) Total Score LS Mean (SE) of Change from Baseline ([1]; 5 mg QD, MMRM, Week 8): −0.49 (0.57)
- ADAS-cog (11-Item) Total Score Difference From Placebo LS Mean (SE) of Difference ([1]; 5 mg QD, MMRM, Week 12): 0.03 (0.90)
- ADAS-cog (11-Item) Total Score LS Mean (SE) of Change from Baseline ([1]; 5 mg QD, MMRM, Week 12): −0.80 (0.64)
- ADAS-cog (11-Item) Total Score Observed Mean (SD) Final ([1]; 5 mg QD): 24.30 (10.50)
- cognition relative to placebo, ADAS-cog (11-item) MMRM (in words) ([1]; 5 mg, over the 12 weeks): no improvement in cognition relative to placebo
- cognition relative to placebo, ADAS-cog (11-item) MMRM (in words) ([1]; 25 mg): trend toward statistical significance at Weeks 4 and 8 in cognitive improvement
- ADAS-cog (11-Item) Total Score Difference From Placebo LS Mean (SE) of Difference [1, 5]: −1.19
- ADAS-cog (11-Item) Total Score LS Mean (SE) of Change [1, 5]: −1.86 (0.64)
- ADAS-cog (11-Item) Total Score Observed Mean (SD) change ([1]; 25 mg QD, Change to Week 4): −1.18 (4.29)
- ADAS-cog (11-Item) Total Score Observed Mean (SD) change ([1]; 25 mg QD, Change to Week 8): −1.94 (5.12)
- ADAS-cog (11-Item) Total Score Observed Mean (SD) change ([1]; 25 mg QD, Change to Week 12): −2.12 (5.53)
- ADAS-cog (11-Item) Total Score Difference From Placebo LS Mean (SE) of Difference ([1]; 25 mg QD, MMRM, Week 4): −0.84 (0.65)
- ADAS-cog (11-Item) Total Score LS Mean (SE) of Change from Baseline ([1]; 25 mg QD, MMRM, Week 4): −0.94 (0.46)
- ADAS-cog (11-Item) Total Score Difference From Placebo LS Mean (SE) of Difference ([1]; 25 mg QD, MMRM, Week 8): −1.11 (0.82)
- ADAS-cog (11-Item) Total Score LS Mean (SE) of Change from Baseline ([1]; 25 mg QD, MMRM, Week 8): −1.67 (0.58)
- ADAS-cog (11-Item) Total Score Difference From Placebo LS Mean (SE) of Difference ([1]; 25 mg QD, MMRM, Week 12): −1.14 (0.91)
- ADAS-cog (11-Item) Total Score LS Mean (SE) of Change from Baseline ([1]; 25 mg QD, MMRM, Week 12): −1.97 (0.65)
- ADAS-cog (11-Item) Total Score Observed Mean (SD) Final ([1]; 25 mg QD): 26.61 (12.09)
- efficacy (in words) ([1]; 25 mg dose, 12 weeks): Evidence for efficacy
- efficacy in treatment of core symptoms of Alzheimer's disease in human patients (summary in words) [1]: signal for efficacy
- efficacy in treatment of core symptoms of Alzheimer's disease in human patients (summary in words) ([1]; listed as ABT-126): statistically significant efficacy compared to placebo
- ADAS-cog (13-Item) Total Score Difference From Placebo LS Mean (SE) of Difference [2, 4]: −0.13 (1.03)
- ADAS-cog (13-Item) Total Score LS Mean (SE) of Change [2, 4]: −0.90 (0.73)
- ADAS-cog (13-Item) Total Score Observed Mean (SD) change ([2]; 5 mg QD, Change to Week 4): −0.67 (4.31)
- ADAS-cog (13-Item) Total Score Observed Mean (SD) change ([2]; 5 mg QD, Change to Week 8): −0.76 (5.88)
- ADAS-cog (13-Item) Total Score Observed Mean (SD) change ([2]; 5 mg QD, Change to Week 12): −1.20 (6.36)
- ADAS-cog (13-Item) Total Score Difference From Placebo LS Mean (SE) of Difference ([2]; 5 mg QD, MMRM, Week 4): −0.30 (0.73)
- ADAS-cog (13-Item) Total Score LS Mean (SE) of Change from Baseline ([2]; 5 mg QD, MMRM, Week 4): −0.30 (0.52)
- ADAS-cog (13-Item) Total Score Difference From Placebo LS Mean (SE) of Difference ([2]; 5 mg QD, MMRM, Week 8): −0.29 (0.95)
- ADAS-cog (13-Item) Total Score LS Mean (SE) of Change from Baseline ([2]; 5 mg QD, MMRM, Week 8): −0.64 (0.67)
- ADAS-cog (13-Item) Total Score Difference From Placebo LS Mean (SE) of Difference ([2]; 5 mg QD, MMRM, Week 12): 0.15 (1.04)
- ADAS-cog (13-Item) Total Score LS Mean (SE) of Change from Baseline ([2]; 5 mg QD, MMRM, Week 12): −0.99 (0.73)
- ADAS-cog (13-Item) Total Score Observed Mean (SD) Final ([2]; 5 mg QD): 35.92 (12.07)
- ADAS-cog (13-Item) Total Score Difference From Placebo LS Mean (SE) of Difference [2, 5]: −1.83 (1.05)
- ADAS-cog (13-Item) Total Score LS Mean (SE) of Change [2, 5]: −2.60 (0.75)
- ADAS-cog (13-Item) Total Score Observed Mean (SD) change ([2]; 25 mg QD, Change to Week 4): −2.38 (4.72)
- ADAS-cog (13-Item) Total Score Observed Mean (SD) change ([2]; 25 mg QD, Change to Week 8): −2.78 (6.05)
- ADAS-cog (13-Item) Total Score Observed Mean (SD) change ([2]; 25 mg QD, Change to Week 12): −2.89 (6.77)
- ADAS-cog (13-Item) Total Score Difference From Placebo LS Mean (SE) of Difference ([2]; 25 mg QD, MMRM, Week 4): −2.13 (0.75)
- ADAS-cog (13-Item) Total Score LS Mean (SE) of Change from Baseline ([2]; 25 mg QD, MMRM, Week 4): −2.13 (0.53)
- ADAS-cog (13-Item) Total Score Difference From Placebo LS Mean (SE) of Difference ([2]; 25 mg QD, MMRM, Week 8): −2.06 (0.98)
- ADAS-cog (13-Item) Total Score LS Mean (SE) of Change from Baseline ([2]; 25 mg QD, MMRM, Week 8): −2.42 (0.70)
- ADAS-cog (13-Item) Total Score Difference From Placebo LS Mean (SE) of Difference ([2]; 25 mg QD, MMRM, Week 12): −1.61 (1.08)
- ADAS-cog (13-Item) Total Score LS Mean (SE) of Change from Baseline ([2]; 25 mg QD, MMRM, Week 12): −2.74 (0.77)
- ADAS-cog (13-Item) Total Score Observed Mean (SD) Final ([2]; 25 mg QD): 38.08 (13.81)
- tolerability in subjects with AD ([3]; 5 mg and 25 mg QD (doses up to 25 mg QD), 12 weeks): generally well tolerated
- changes in vital signs, ECG parameters or laboratory assessments ([3]; 5 mg and 25 mg QD, 12 weeks): no consistent clinically meaningful changes
- serious adverse events considered by the investigator to be related ([3]; 5 mg and 25 mg QD, 12 weeks): none that were considered by the investigator to be related
- dose dependence of adverse events ([3]; 25 mg group): no evidence for a dose-dependent increase in adverse events
